Measured values: patent publication US20130303509A1, “NAMPT INHIBITORS” (AbbVie Inc., priority 2012, published 2013)

These compounds were tested on PC3 cells (assay: NAMPT Cell Proliferation Assay). Details: Homo sapiens, PC-3, 120 h, 5 days incubation, cell viability by Cell Titer Glo.
Type: cell-based
Procedure: NAMPT Cell Proliferation Assay
PC3 cells were seeded in 96-well black plates (Corning #3904) at 500 cells)Owell in 90 µl of RPMI media containing 10% heat-inactivated FBS and incubated overnight at 37° C. and 5% CO2 to allow cells to attach to wells. The following day, test compounds were serially diluted in neat DMSO to 1000× final concentrations prior to dilution with RPMI media to 10× and 1% DMSO. […] of the 10× compounds were then transferred to wells containing cells to produce a dose response of 10-fold dilutions from […] to 1×10^−[…]. Cells were incubated for 5 days at 37° C. and 5% CO2, then cell viability was measured using Cell Titer Glo reagent (Promega #G7571). Percent inhibition values were calculated and fitted to a sigmoidal dose response curves using Assay Explorer software to determine IC50s.

IC50 | Compound
1.41 nM | O=C(Nc1ccc(C2CCN(C(=O)CC3CCOCC3)CC2)cc1)C1CN(c2cccnc2)C1 [Example 25, 1-(pyridin-3-yl)-N-{4-[1-(tetrahydro-2H-pyran-4-ylacetyl)piperidin-4-yl]phenyl}azetidine-3-carboxamide]
0.682 nM | O=C(Nc1ccc(C2CCN(C(=O)c3ccccc3)CC2)cc1)C1CN(c2cccnc2)C1 [Example 26, N-[4-(1-benzoylpiperidin-4-yl)phenyl]-1-(pyridin-3-yl)azetidine-3-carboxamide]
> 10000 nM | CC(C)(C)OC(=O)N1CCC(Oc2ccc(C(=O)N[C@H]3CCN(c4cccnc4)C3)cc2)CC1 [Example 27, tert-butyl 4-(4-{[(3S)-1-(pyridin-3-yl)pyrrolidin-3-yl]carbamoyl}phenoxy)piperidine-1-carboxylate]
> 10000 nM | CC(C)(C)OC(=O)N1CCC(Oc2ccc(C(=O)N[C@@H]3CCN(c4cccnc4)C3)cc2)CC1 [Example 28, tert-butyl 4-(4-{[(3R)-1-(pyridin-3-yl)pyrrolidin-3-yl]carbamoyl}phenoxy)piperidine-1-carboxylate]
135 nM | Cc1ncccc1N1CC(C(=O)Nc2ccc(C3CCN(C(=O)C(C)C)CC3)cc2)C1 [Example 29, N-{4-[1-(2-methylpropanoyl)piperidin-4-yl]phenyl}-1-(2-methylpyridin-3-yl)azetidine-3-carboxamide]
1.97 nM | CC(C)C(=O)N1CCC(c2ccc(NC(=O)C3CN(c4cccnc4)C3)cc2)CC1 [Example 30, N-{4-[1-(2-methylpropanoyl)piperidin-4-yl]phenyl}-1-(pyridin-3-yl)azetidine-3-carboxamide]
6.9 nM | CC(C)(O)C(=O)N1CCC(Oc2ccc(NC(=O)C3CN(c4cccnc4)C3)cc2)CC1 [Example 31, N-(4-{[1-(2-hydroxy-2-methylpropanoyl)piperidin-4-yl]oxy}phenyl)-1-(pyridin-3-yl)azetidine-3-carboxamide]
6.54 nM | CC[C@H](C)C(=O)N1CCC(Oc2ccc(NC(=O)C3CN(c4cccnc4)C3)cc2)CC1 [Example 32, N-[4-({1-[(2S)-2-methylbutanoyl]piperidin-4-yl}oxy)phenyl]-1-(pyridin-3-yl)azetidine-3-carboxamide]
3.66 nM | O=C(Nc1ccc(OC2CCN(C(=O)[C@@H]3CCCO3)CC2)cc1)C1CN(c2cccnc2)C1 [Example 33, 1-(pyridin-3-yl)-N-[4-({1-[(2S)-tetrahydrofuran-2-ylcarbonyl]piperidin-4-yl}oxy)phenyl]azetidine-3-carboxamide]
6.8 nM | CCCCC(=O)N1CCC(Oc2ccc(NC(=O)C3CN(c4cccnc4)C3)cc2)CC1 [Example 34, N-{4-[(1-pentanoylpiperidin-4-yl)oxy]phenyl}-1-(pyridin-3-yl)azetidine-3-carboxamide]
6.92 nM | CC1CC1C(=O)N1CCC(Oc2ccc(NC(=O)C3CN(c4cccnc4)C3)cc2)CC1 (centres unmarked) [Example 35, N-[4-({1-[(2-methylcyclopropyl)carbonyl]piperidin-4-yl}oxy)phenyl]-1-(pyridin-3-yl)azetidine-3-carboxamide]
9.66 nM | O=C(Nc1ccc(OC2CCN(C(=O)CC3C[C@@H]4CC[C@H]3C4)CC2)cc1)C1CN(c2cccnc2)C1 (stereo partly drawn) [Example 36, N-[4-({1-[(1S,4R)-bicyclo[2.2.1]hept-2-ylacetyl]piperidin-4-yl}oxy)phenyl]-1-(pyridin-3-yl)azetidine-3-carboxamide]
6.48 nM | CC(C)CCC(=O)N1CCC(Oc2ccc(NC(=O)C3CN(c4cccnc4)C3)cc2)CC1 [Example 37, N-(4-{[1-(4-methylpentanoyl)piperidin-4-yl]oxy}phenyl)-1-(pyridin-3-yl)azetidine-3-carboxamide]
6.39 nM | CCC(C)CC(=O)N1CCC(Oc2ccc(NC(=O)C3CN(c4cccnc4)C3)cc2)CC1 (centres unmarked) [Example 38, N-(4-{[1-(3-methylpentanoyl)piperidin-4-yl]oxy}phenyl)-1-(pyridin-3-yl)azetidine-3-carboxamide]
7.38 nM | CCOCCC(=O)N1CCC(Oc2ccc(NC(=O)C3CN(c4cccnc4)C3)cc2)CC1 [Example 39, N-(4-{[1-(3-ethoxypropanoyl)piperidin-4-yl]oxy}phenyl)-1-(pyridin-3-yl)azetidine-3-carboxamide]
2.17 nM | CCC(C)(C)C(=O)N1CCC(Oc2ccc(NC(=O)C3CN(c4cccnc4)C3)cc2)CC1 [Example 40, N-(4-{[1-(2,2-dimethylbutanoyl)piperidin-4-yl]oxy}phenyl)-1-(pyridin-3-yl)azetidine-3-carboxamide]
3.76 nM | CC(C)(C)CC(=O)N1CCC(Oc2ccc(NC(=O)C3CN(c4cccnc4)C3)cc2)CC1 [Example 41, N-(4-{[1-(3,3-dimethylbutanoyl)piperidin-4-yl]oxy}phenyl)-1-(pyridin-3-yl)azetidine-3-carboxamide]
64.6 nM | CC(C)(C)C(=O)N1CCC(Oc2ccc(NC(=O)C3CN(c4cccnc4)C3)cc2)CC1 [Example 42, N-(4-{[1-(2,2-dimethylpropanoyl)piperidin-4-yl]oxy}phenyl)-1-(pyridin-3-yl)azetidine-3-carboxamide]

IC50 | Compound
6.88 nM | CCCC(=O)N1CCC(Oc2ccc(NC(=O)C3CN(c4cccnc4)C3)cc2)CC1 [Example 43, N-{4-[(1-butanoylpiperidin-4-yl)oxy]phenyl}-1-(pyridin-3-yl)azetidine-3-carboxamide]
5.47 nM | CCOCC(=O)N1CCC(Oc2ccc(NC(=O)C3CN(c4cccnc4)C3)cc2)CC1 [Example 44, N-(4-{[1-(ethoxyacetyl)piperidin-4-yl]oxy}phenyl)-1-(pyridin-3-yl)azetidine-3-carboxamide]
6.77 nM | CC(C)CC(=O)N1CCC(Oc2ccc(NC(=O)C3CN(c4cccnc4)C3)cc2)CC1 [Example 45, N-(4-{[1-(3-methylbutanoyl)piperidin-4-yl]oxy}phenyl)-1-(pyridin-3-yl)azetidine-3-carboxamide]
3.01 nM | CC(C)C(=O)N1CCC(Oc2ccc(NC(=O)C3CN(c4cccnc4)C3)cc2)CC1 [Example 46, N-(4-{[1-(2-methylpropanoyl)piperidin-4-yl]oxy}phenyl)-1-(pyridin-3-yl)azetidine-3-carboxamide]
3.35 nM | CC(=O)N[C@@H](CC(C)C)C(=O)N1CCC(Oc2ccc(NC(=O)C3CN(c4cccnc4)C3)cc2)CC1 [Example 47, N-(4-{[1-(N-acetyl-L-leucyl)piperidin-4-yl]oxy}phenyl)-1-(pyridin-3-yl)azetidine-3-carboxamide]
2.88 nM | COCCOCC(=O)N1CCC(Oc2ccc(NC(=O)C3CN(c4cccnc4)C3)cc2)CC1 [Example 48, N-[4-({1-[(2-methoxyethoxy)acetyl]piperidin-4-yl}oxy)phenyl]-1-(pyridin-3-yl)azetidine-3-carboxamide]
6.96 nM | O=C(Nc1ccc(OC2CCN(C(=O)C3CCCCC3)CC2)cc1)C1CN(c2cccnc2)C1 [Example 49, N-(4-{[1-(cyclohexylcarbonyl)piperidin-4-yl]oxy}phenyl)-1-(pyridin-3-yl)azetidine-3-carboxamide]
8.95 nM | O=C(Nc1ccc(OC2CCN(C(=O)CC3CCCCC3)CC2)cc1)C1CN(c2cccnc2)C1 [Example 50, N-(4-{[1-(cyclohexylacetyl)piperidin-4-yl]oxy}phenyl)-1-(pyridin-3-yl)azetidine-3-carboxamide]
3.62 nM | O=C(Nc1ccc(OC2CCN(C(=O)CCC(F)(F)F)CC2)cc1)C1CN(c2cccnc2)C1 [Example 51, 1-(pyridin-3-yl)-N-(4-{[1-(4,4,4-trifluorobutanoyl)piperidin-4-yl]oxy}phenyl)azetidine-3-carboxamide]
6.28 nM | O=C(Nc1ccc(OC2CCN(C(=O)C3CCCC3)CC2)cc1)C1CN(c2cccnc2)C1 [Example 52, N-(4-{[1-(cyclopentylcarbonyl)piperidin-4-yl]oxy}phenyl)-1-(pyridin-3-yl)azetidine-3-carboxamide]
3.67 nM | CC1(C(=O)N2CCC(Oc3ccc(NC(=O)C4CN(c5cccnc5)C4)cc3)CC2)CCCCC1 [Example 53, N-[4-({1-[(1-methylcyclohexyl)carbonyl]piperidin-4-yl}oxy)phenyl]-1-(pyridin-3-yl)azetidine-3-carboxamide]
3.31 nM | O=C(Nc1ccc(OC2CCN(C(=O)c3ccoc3)CC2)cc1)C1CN(c2cccnc2)C1 [Example 54, N-(4-{[1-(furan-3-ylcarbonyl)piperidin-4-yl]oxy}phenyl)-1-(pyridin-3-yl)azetidine-3-carboxamide]
21.1 nM | O=C(Nc1ccc(OC2CCN(C(=O)CC(F)(F)F)CC2)cc1)C1CN(c2cccnc2)C1 [Example 55, 1-(pyridin-3-yl)-N-(4-{[1-(3,3,3-trifluoropropanoyl)piperidin-4-yl]oxy}phenyl)azetidine-3-carboxamide]
9.27 nM | CC(=O)N1CCC(Oc2ccc(NC(=O)C3CN(c4cccnc4)C3)cc2)CC1 [Example 56, N-{4-[(1-acetylpiperidin-4-yl)oxy]phenyl}-1-(pyridin-3-yl)azetidine-3-carboxamide]
8.75 nM | COCC(=O)N1CCC(Oc2ccc(NC(=O)C3CN(c4cccnc4)C3)cc2)CC1 [Example 57, N-(4-{[1-(methoxyacetyl)piperidin-4-yl]oxy}phenyl)-1-(pyridin-3-yl)azetidine-3-carboxamide]
6.48 nM | O=C(Nc1ccc(OC2CCN(C(=O)c3ccsc3)CC2)cc1)C1CN(c2cccnc2)C1 [Example 58, 1-(pyridin-3-yl)-N-(4-{[1-(thiophen-3-ylcarbonyl)piperidin-4-yl]oxy}phenyl)azetidine-3-carboxamide]
6.14 nM | Cc1ccsc1C(=O)N1CCC(Oc2ccc(NC(=O)C3CN(c4cccnc4)C3)cc2)CC1 [Example 59, N-[4-({1-[(3-methylthiophen-2-yl)carbonyl]piperidin-4-yl}oxy)phenyl]-1-(pyridin-3-yl)azetidine-3-carboxamide]
